Data on 22 compounds can be found in patent US7115611B2, “Phenyl derivatives, their manufacture and use as pharmaceutical agents” (Hoffmann-la Roche Inc., priority 2003, dated 2006).

Usually melting point stands for the temperature of the solid-liquid transition. On to `Cc1cc(SC(C)c2ccc(-c3ccc(C(F)(F)F)cc3)nc2C)ccc1OCC(=O)O` (racemic) [Example 17, [rac]-(2-Methyl-4-{1-[2-methyl-6-(4-trifluoromethyl-phenyl)-pyridin-3-yl]-ethylsulfanyl}-phenoxy)-acetic acid], for which the melting point fell in the range of 115 to 117 °C. Under `CCC(Sc1ccc(OCC(=O)O)c(C)c1)c1ccc(-c2ccc(C(F)(F)F)cc2)nc1C` (racemic) [Example 18, [rac]-(2-Methyl-4-{1-[2-methyl-6-(4-trifluoromethyl-phenyl)-pyridin-3-yl]-propylsulfanyl}-phenoxy)-acetic acid] stands 126 to 128 °C. Under `COCCCc1cc(N(C)Cc2ccc(-c3ccc(C(F)(F)F)cc3)nc2C)ccc1OCC(=O)O` [Example 1, (2-(3-Methoxy-propyl)-4-{methyl-[2-methyl-6-(4-trifluoromethyl-phenyl)-pyridin-3-ylmethyl]-amino}-phenoxy)-acetic acid] stands 72 to 73 °C; under `Cc1cc(N(C)Cc2ccc(-c3ccc(C(F)(F)F)cc3)nc2C)cc(C)c1OCC(=O)O` [Example 7, (2,6-Dimethyl-4-{methyl-[2-methyl-6-(4-trifluoromethyl-phenyl)-pyridin-3-ylmethyl]-amino}-phenoxy)-acetic acid], 137 to 138 °C. As for `Cc1cc(OCc2ccc(-c3ccc(C(F)(F)F)cc3)nc2)ccc1OC(C)(C)C(=O)O` [Example 9, 2-Methyl-2-{2-methyl-4-[6-(4-trifluoromethyl-phenyl)-pyridin-3-ylmethoxy]-phenoxy}-propionic acid], the figure is 149 to 151 °C. On to `Cc1cc(OCc2ccc(-c3ccc(OC(F)(F)F)cc3)nc2)ccc1OC(C)(C)C(=O)O` [Example 10, 2-Methyl-2-{2-methyl-4-[6-(4-trifluoromethoxy-phenyl)-pyridin-3-ylmethoxy]-phenoxy}-propionic acid], for which the melting point lay in the range of 146 to 148 °C. Under `Cc1cc(N(C)Cc2ccc(-c3ccc(Cl)cc3)nc2)ccc1OCC(=O)O` [Example 12, (4-{[6-(4-Chloro-phenyl)-pyridin-3-ylmethyl]-methyl-amino}-2-methyl-phenoxy)-acetic acid] stands 174 to 176 °C. As for `Cc1cc(N(C)Cc2ccc(-c3ccc(OC(F)(F)F)cc3)nc2)ccc1OCC(=O)O` [Example 13, (2-Methyl-4-{methyl-[6-(4-trifluoromethoxy-phenyl)-pyridin-3-ylmethyl]-amino}-phenoxy)-acetic acid], the figure is 137 to 138 °C; as for `COCCCc1cc(N(C)Cc2ccc(-c3ccc(OC(F)(F)F)cc3)nc2)ccc1OCC(=O)O` [Example 14, (2-(3-Methoxy-propyl)-4-{methyl-[6-(4-trifluoromethoxy-phenyl)-pyridin-3-ylmethyl]-amino}-phenoxy)-acetic acid], 73 to 75 °C. As for `Cc1cc(N(C)Cc2ccc(-c3ccc(C(F)(F)F)cc3)nc2)ccc1OCC(=O)O` [Example 15, (2-Methyl-4-{methyl-[6-(4-trifluoromethyl-phenyl)-pyridin-3-ylmethyl]-amino}-phenoxy)-acetic acid], the figure is 199 °C; as for `COCCCc1cc(N(C)Cc2ccc(-c3ccc(C(F)(F)F)cc3)nc2)ccc1OCC(=O)O` [Example 16, (2-(3-Methoxy-propyl)-4-{methyl-[6-(4-trifluoromethyl-phenyl)-pyridin-3-ylmethyl]-amino}-phenoxy)-acetic acid], 72 to 76 °C. Turning to `Cc1cc(OCc2ccc(-c3ccc(F)c(C(F)(F)F)c3)nc2C)ccc1OC(C)(C)C(=O)O` [Example 24, 2-{4-[6-(4-Fluoro-3-trifluoromethyl-phenyl)-2-methyl-pyridin-3-ylmethoxy]-2-methyl-phenoxy}-2-methyl-propionic acid], the melting point lay within 141 to 143 °C.

For `Cc1cc(OCc2ccc(-c3ccc(C(F)(F)F)cc3)nc2C)ccc1OC(C)(C)C(=O)O` [Example 34, 2-Methyl-2-{2-methyl-4-[2-methyl-6-(4-trifluoromethyl-phenyl)-pyridin-3-ylmethoxy]-phenoxy}-propionic acid], the melting point lay in the range of 164 to 165 °C. Under `Cc1cc(OCc2ccc(-c3ccc(C(F)(F)F)c(F)c3)nc2C)ccc1OC(C)(C)C(=O)O` [Example 38, 2-{4-[6-(3-Fluoro-4-trifluoromethyl-phenyl)-2-methyl-pyridin-3-ylmethoxy]-2-methyl-phenoxy}-2-methyl-propionic acid] stands 175 to 176 °C; under `Cc1cc(OCc2ccc(-c3ccc(OC(F)(F)F)cc3)nc2C)ccc1OC(C)(C)C(=O)O` [Example 39, 2-Methyl-2-{2-methyl-4-[2-methyl-6-(4-trifluoromethoxy-phenyl)-pyridin-3-ylmethoxy]-phenoxy}-propionic acid], 149 to 151 °C. As for `Cc1cc(OCc2ccc(-c3ccc(C(F)(F)F)cc3)nc2C2CC2)ccc1OC(C)(C)C(=O)O` [Example 40, 2-{4-[2-Cyclopropyl-6-(4-trifluoromethyl-phenyl)-pyridin-3-ylmethoxy]-2-methyl-phenoxy}-2-methyl-propionic acid], the figure is 170 to 171 °C; as for `Cc1cc(OCc2ccc(-c3ccc(C(F)(F)F)cc3)nn2)ccc1OC(C)(C)C(=O)O` [Example 44, 2-Methyl-2-{2-methyl-4-[6-(4-trifluoromethyl-phenyl)-pyridazin-3-ylmethoxy]-phenoxy]-propionic acid], 191 to 192 °C; as for `COCc1nc(-c2ccc(C(F)(F)F)cc2)ccc1COc1ccc(OC(C)(C)C(=O)O)c(C)c1` [Example 45, 2-{4-[2-Methoxymethyl-6-(4-trifluoromethyl-phenyl)-pyridin-3-ylmethoxy]-2-methyl-phenoxy}-2-methyl-propionic acid], 121 to 122 °C. As to `CCOCCc1nc(-c2ccc(C(F)(F)F)nc2)ncc1COc1ccc(OC(C)(C)C(=O)O)c(C)c1` [Example 101, 2-{4-[4-(2-Ethoxy-ethyl)-2-(6-trifluoromethyl-pyridin-3-yl)-pyrimidin-5-ylmethoxy]-2-methyl-phenoxy}-2-methyl-propionic acid], the melting point was 122 to 124 °C (dec.). As for `COCCc1nc(-c2ccc(C(F)(F)F)nc2)ncc1COc1ccc(OC(C)(C)C(=O)O)c(C)c1` [Example 102, 2-{4-[4-(2-Methoxy-ethyl)-2-(6-trifluoromethyl-pyridin-3-yl)-pyrimidin-5-ylmethoxy]-2-methyl-phenoxy}-2-methyl-propionic acid], the figure is 140.5 to 141.5 °C (dec.); as for `Cc1cc(OCc2cnc(-c3ccc(C(F)(F)F)nc3)nc2CCO)ccc1OC(C)(C)C(=O)O` [Example 103, 2-{4-[4-(2-Hydroxy-ethyl)-2-(6-trifluoromethyl-pyridin-3-yl)-pyrimidin-5-ylmethoxy]-2-methyl-phenoxy}-2-methyl-propionic acid], 187 to 188 °C (dec.); as for `COCc1nc(-c2ccc(C(F)(F)F)cc2)ncc1COc1ccc(OC(C)(C)C(=O)O)c(C)c1` [Example 104, 2-{4-[4-Methoxymethyl-2-(4-trifluoromethyl-phenyl)-pyrimidin-5-ylmethoxy]-2-methyl-phenoxy}-2-methyl-propionic acid], 120 to 121 °C.
